The test system of one test is rat. Particulars: cited from earlier work; for anxiolytic activity in EPM test: rat.
Another test deals with rat C6 glioma cells. In words: Pregnenolone production in C6 glioma cells (ELISA). In kind it is cell-based. Particulars: for Emax at 100 µM / EC50: Rattus norvegicus, 2 h; for Emax at 100 µM: read-out: Emax (at 100 μM) (vehicle set to 100%); for EC50: read-out: EC50 (pregnenolone production); for steroidogenic efficacy, ranking in words: among all tested TSPO ligands.
In test [1] the target is T1, TSPO (Rattus norvegicus, UniProt P16257).
T1 construct: Membranes from rat kidneys were prepared as described previously; from tissue; host or cells: rat kidney membranes
In words: Simplified (one-concentration) competition kinetic association assay. The note with it: for dissociation rate of the ligand from TSPO (rapid or slow competitor of [3H]PK11195): shape of [3H]PK11195 association curve, ligand at three-fold Ki; for Kd / koff / kon: unlabeled ligand at three-fold Ki only; for Kd: read-out: Kinetically-derived Kd = Koff/Kon. Type of test: binding. The method, then: The unlabeled TSPO ligand kinetic parameters were assessed using the theoretical model of Motulsky and Mahan[32]. Unlike methods in which one compound is pre-equilibrated with the receptor, this approach involves the simultaneous addition of both radioligand and competitor to receptor preparation, so that at t = 0 all receptors are unoccupied. […] The degree of bound to TSPO was assessed at multiple time points by filtration harvesting and liquid scintillation counting, as above described. […] For ‘simplified’ competition kinetic association assays, the experiments were performed using concentration of unlabeled TSPO ligands corresponding to three-fold their Ki.
Association and dissociation rates for unlabeled TSPO ligands were calculated by fitting the data in the competition association model using the ‘kinetics of competitive binding’ assay, defining the amount of radioligand bound to receptor ([RL]) as a function of time[32]: […]

In test [2] the target is T1, TSPO. Kind of test: [3H]PK11195 binding displacement assay, rat kidney membranes. Particulars: read-out: Equilibrium Ki. As to the method:
(§1) Membranes from rat kidneys were prepared as described previously. All the experimental procedures were carried out following the guidelines of the European Community Council Directive 86–609 and have been approved by the Committee for animal experimentation of the University of Pisa. The resulting membrane pellets were aliquoted and frozen at –20 °C. For all radioligand binding assays, an aliquot of membranes was thawed, suspended in assay buffer (AB, Tris-HCl 50 mM, pH 7.4) and homogenized using Ultraturrax. In cell membrane homogenate, protein content was measured by the Bradford method[52] using the Bio-Rad Protein Assay reagent.
(§2) All experiments were analyzed by either linear or non linear regression using Prism 5.0 (GraphPad Software Inc., San Diego, CA). […] Competition displacement binding were fitted to sigmoidal (variable slope) curves.

In a further test the test system is neurosteroid synthesis. Details: method as in PMID 25654303. Particulars: relative to XBD173; cited from earlier work.
In test [3] the test system is TSPO. Details: method as in PMID 25654303. The note with it: relative to XBD173; cited from earlier work.
In another test the test system is human glial cell model. Further details: method as in PMID 20728278. The note with it: cited from earlier work.
Another test concerns GABAA receptor. Details: method as in PMID 20728278. The note with it: conditioned medium of treated glial cells; cited from earlier work.
In test [4] the target is T1, TSPO. In words: [3H]PK11195 binding saturation assay, rat kidney membranes. Particulars: [3H]PK11195 saturation binding. The method, then:
as §1, §2

[5] abbreviates: pregnenolone production at 100 μM ligand, C6 cells.
Where [6] appears, read: C6 cells, 0-100 μM ligand, serum-free.
Where [7] appears, read: displacement of 1 nM [3H]PK11195, rat kidney membranes, 0 °C.

Where two headings read alike, the source gives them in different places.

`CCN(Cc1ccccc1)C(=O)C(=O)c1c(-c2ccc(Cl)cc2)[nH]c2ccc(Cl)cc12` [PIGA823]: the “anxiolytic activity in EPM test” value with rat was “significant anxiolytic activity”. Further, the Emax at 100 µM in the test with rat C6 glioma cells (setting [5]) amounted to 272 ± 11%. In the test with rat C6 glioma cells (setting [6]), the EC50 turned out to be 12.2 ± 1.3 µM. Further, the “steroidogenic efficacy, ranking in words” value in the test on rat C6 glioma cells (C6 cells) was “highest efficacy”. Besides, on TSPO [1], the “dissociation rate of the ligand from TSPO (rapid or slow competitor of [3H]PK11195)” value (shortened to “dissociation rate of the ligand”) is given as “slow” and the Kd turned out to be 1.86 ± 0.17 nM. Moreover, the inhibitory constant (Ki) at TSPO [2] (setting [7]) was 3.3 ± 0.31 nM.

For the compound `CCCCCCN(CCCCCC)C(=O)C(=O)c1c(-c2ccccc2)[nH]c2ccc(Cl)cc12` [PIGA745], the maximum response (Emax) at 100 µM in the test on rat C6 glioma cells (setting [5]) is 140 ± 5%. Besides, the concentration for a half-maximal effect (EC50) with rat C6 glioma cells (setting [6]) is 34.6 ± 3.6 µM. For the same compound, on TSPO [1], the “dissociation rate of the ligand” value is reported as “rapid”, the koff is 0.000967 s⁻¹, the kon is 64000 M⁻¹ s⁻¹ and the Kd worked out at 15.1 ± 1.16 nM. For the same compound, the Ki on TSPO [2] amounted to 13.1 ± 1.16 nM.

Turning to `CCNC1=Nc2ccc(Cl)cc2C(C)(c2ccccc2)O1` (stereo not shown) [Etifoxine], the “potency to stimulate neurosteroidogenesis compared with XBD173” value in the test with neurosteroid synthesis is on record as “more potent”. For the same compound, the “binding affinity to TSPO, fold lower than XBD173” value in the test on TSPO [3] is listed as “approximately 140 fold”.

As to `CCCN(CCC)C(=O)C(=O)c1c(-c2ccc(C)cc2)[nH]c2ccccc12` [PIGA839], in the test on rat, the “anxiolytic activity in EPM test” value is recorded as “significant anxiolytic activity”. The “allopregnanolone in medium of treated cells” value in the test with human glial cell model was “high levels”. In addition, the maximal response (Emax) at 100 µM in the test on rat C6 glioma cells (setting [5]) turned out to be 254 ± 5%. The concentration giving a half-maximal response (EC50) with rat C6 glioma cells (setting [6]) is 16.3 ± 1.4 µM. Further, the “steroidogenic efficacy, ranking in words” value in the test with rat C6 glioma cells (C6 cells) is recorded as “highest efficacy”. Besides, on TSPO [1], the “dissociation rate of the ligand” value is recorded as “slow”, the koff is 0.00015 s⁻¹, the kon is 28200 M⁻¹ s⁻¹ and the Kd was 5.45 ± 0.6 nM. In addition, the Ki at TSPO [2] (setting [7]) is 5.5 ± 0.47 nM. The “36Cl- uptake into cerebral cortical synaptoneurosomes” value in the test on GABAA receptor is reported as “potentiated”.

As to `CCCCCN(C)C(=O)C(=O)c1c(-c2ccc3ccccc3c2)[nH]c2ccccc12` [PIGA1138], in the test with rat C6 glioma cells (setting [5]), the Emax at 100 µM worked out at 275 ± 5%. Moreover, the EC50 in the test with rat C6 glioma cells (setting [6]) worked out at 13.1 ± 1.4 µM. Also, the “steroidogenic efficacy, ranking in words” value with rat C6 glioma cells (C6 cells) is “highest efficacy”. At TSPO [1], the “dissociation rate of the ligand” value is reported as “slow”, the koff is 0.000117 s⁻¹, the on-rate (kon) was 717000 M⁻¹ s⁻¹ and the Kd stood at 0.17 ± 0.03 nM. The Ki on TSPO [2] stood at 0.34 ± 0.03 nM.

In the case of `CCCN(CCC)C(=O)C(=O)c1c(-c2ccc3ccccc3c2)[nH]c2ccccc12` [PIGA1128], the Emax at 100 µM with rat C6 glioma cells (setting [5]) was 179 ± 7%. Also, the EC50 in the test with rat C6 glioma cells (setting [6]) turned out to be 26.1 ± 1.5 µM. For the same compound, on TSPO [1], the “dissociation rate of the ligand” value is on record as “slow”, the koff is 0.0003 s⁻¹, the kon is 1.35e+06 M⁻¹ s⁻¹ and the Kd stood at 0.22 ± 0.05 nM. Besides, the Ki on TSPO [2] (setting [7]) worked out at 0.31 ± 0.02 nM.

For the compound `CN1C(=O)CN=C(c2ccc(Cl)cc2)c2cc(Cl)ccc21` [Ro5-4864, reference compound], in the test with rat, the “anxiolytic effect in EPM test” value was “does not determine anxiolytic effect”. Further, in the test on rat C6 glioma cells, the EC50 was found to be 36.2 ± 2.5 µM and the Emax at 100 µM is 150 ± 4%. For the same compound, at TSPO [1], the “dissociation rate of the ligand” value is “rapid”.

`CCCCCCN(CCCCCC)C(=O)C(=O)c1c(-c2ccc(C(=O)O)cc2)[nH]c2ccccc12` [PIGA1214]: in the test with rat C6 glioma cells (setting [5]), the Emax at 100 µM was 141 ± 4%. Also, the EC50 in the test with rat C6 glioma cells (setting [6]) amounted to 92 ± 5.6 µM. Further, at TSPO [1], the “dissociation rate of the ligand” value is “rapid” and the Kd amounted to 332 ± 15 nM. Also, on TSPO [2], the Ki was found to be 343 ± 15.9 nM.

As to `CCCN(CCC)C(=O)C(=O)c1c(-c2ccccc2)[nH]c2ccccc12` [PIGA719], the Emax at 100 µM in the test on rat C6 glioma cells (setting [5]) was found to be 146 ± 2%. In addition, the EC50 in the test with rat C6 glioma cells (setting [6]) was 12.9 ± 1.5 µM. Also, on TSPO [1], the “dissociation rate of the ligand” value was “rapid” and the Kd came out at 11.9 ± 1 nM. Moreover, the Ki on TSPO [2] (setting [7]) is 12.2 ± 1.1 nM.

Take `CCCCN(CCCC)C(=O)C(=O)c1c(-c2ccc(Cl)cc2)[nH]c2ccc(Cl)cc12` [PIGA835]: the Emax at 100 µM with rat C6 glioma cells (setting [5]) is 149 ± 4%. Moreover, the EC50 with rat C6 glioma cells (setting [6]) was 25.6 ± 2.3 µM. On TSPO [1], the “dissociation rate of the ligand” value is listed as “rapid”, the koff is 0.000967 s⁻¹, the kon is 963000 M⁻¹ s⁻¹ and the Kd is 1 ± 0.19 nM. In addition, the Ki on TSPO [2] came to 0.91 ± 0.11 nM.

Turning to `CCC(C)N(C)C(=O)c1cc2ccccc2c(-c2ccccc2Cl)n1` (stereo not shown) [PK11195, reference compound], the “anxiolytic effect in EPM test” value in the test on rat is recorded as “does not determine anxiolytic effect”. Besides, the EC50 with rat C6 glioma cells stood at 19.5 ± 1.8 µM. The Emax at 100 µM in the test on rat C6 glioma cells (setting [5]) was 153 ± 4%. Further, the Bmax on TSPO [4] is reported as 6498 ± 500 fmol/mg of proteins.

For `CCCCCCN(CCCCCC)C(=O)C(=O)c1c(-c2ccccc2)[nH]c2ccccc12` [PIGA720], the Emax at 100 µM in the test with rat C6 glioma cells (setting [5]) came out at 144 ± 4%. Further, the EC50 in the test with rat C6 glioma cells (setting [6]) stood at 29.7 ± 3.1 µM. At TSPO [1], the “dissociation rate of the ligand” value is “rapid” and the Kd worked out at 1.79 ± 0.24 nM. The Ki at TSPO [2] (setting [7]) was determined as 1.4 ± 0.28 nM.

Turning to `CCCCCCN(CCCCCC)C(=O)C(=O)c1c(-c2ccccc2)[nH]c2ccc([N+](=O)[O-])cc12` [PIGA925], in the test with rat C6 glioma cells (setting [5]), the Emax at 100 µM came to 166 ± 5%. The concentration for a half-maximal effect (EC50) in the test with rat C6 glioma cells (setting [6]) turned out to be 9.71 ± 1 µM. For the same compound, on TSPO [1], the “dissociation rate of the ligand” value is given as “rapid”, the koff is 0.00113 s⁻¹, the kon is 113000 M⁻¹ s⁻¹ and the Kd came out at 10 ± 1.13 nM. In addition, on TSPO [2], the Ki was 12.2 ± 3.14 nM.

Values taken from paper PMC4707509, “TSPO ligand residence time: a new parameter to predict compound neurosteroidogenic efficacy” (Scientific Reports, 2016).
